From patent publication US4757151A, “2-substituted-[2-substituted-amino]-N-arylalkyl-3-[indol-3-yl]” (Warner-Lambert Company, priority 1986, dated 1988)

Legend:
[1] = percent repression of food intake (appetite suppression) in laboratory rats trained to a six hour feeding period; assay type: in vivo, adult male Wistar rats
Text: In this screen, adult male Wistar rats weighing between 250-400 g were housed individually and trained to consume their daily intake of food within a six hour period. Food was then withdrawn for the remaining eighteen hour period of each day. Drinking water was available at all times, and the animals were maintained on a twelve hour light/twelve hour dark cycle. This training regimen was maintained for a seven-day period. Powdered, rather than pelletized, food was used to minimize spillage and to facilitate measurement of food intake.
On each test day, a group of twelve rats was used, six receiving a single dose of test compound and six serving as a control group. Immediately after dosing, the rats were allowed access to food. Food intake was then monitored over the next six-hour period. The food hoppers were weighed at intervals of 30 minutes, and at 1, 2, 3, 4, 5, and 6 hours after administration of the test compound. The percent repression of food intake of laboratory rats under these conditions for the prior art octapeptide, CCK26-33, and for several compounds of the present invention appear in Table 2.

CCK receptor = biological target: T1, CCK receptor (Mus musculus, UniProt P56481); experiment: displacement of tritiated pentagastrin binding to mouse cerebral cortical membranes (CCK receptor binding screening test); set-up: species or system male CFLP mice; settings: tritiated pentagastrin (2 nM) displacement, Cheng-Prusoff
T1 construct: the cerebral cortices from male CFLP mice weighing between 30-40 g were dissected on ice, weighed and homogenized; from tissue; host or cells: cerebral cortex membranes of male CFLP mice
T1 sequence (P56481 1-453): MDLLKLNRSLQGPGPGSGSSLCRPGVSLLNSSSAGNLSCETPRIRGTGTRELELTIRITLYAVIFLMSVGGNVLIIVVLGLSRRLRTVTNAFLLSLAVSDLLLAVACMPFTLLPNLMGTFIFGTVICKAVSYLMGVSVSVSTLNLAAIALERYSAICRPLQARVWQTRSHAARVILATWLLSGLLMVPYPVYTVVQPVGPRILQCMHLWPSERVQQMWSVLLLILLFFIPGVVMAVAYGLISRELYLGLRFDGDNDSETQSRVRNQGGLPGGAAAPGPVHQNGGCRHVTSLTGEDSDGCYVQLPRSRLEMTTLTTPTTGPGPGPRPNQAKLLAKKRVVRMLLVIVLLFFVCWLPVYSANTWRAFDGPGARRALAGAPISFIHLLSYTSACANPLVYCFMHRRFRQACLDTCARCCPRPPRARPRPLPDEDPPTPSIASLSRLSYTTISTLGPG
Experimental: The biological activities of compounds of this invention were evaluated employing an initial screening test which rapidly and accurately measured the binding of the tested compound to known CCK receptor cites. […] (See Hays et al., Neuropeptides, 1: 53-62 (1980); and Sauter et al., Science, 208: 1155-1156 (1980).
In the screening test, the cerebral cortices from male CFLP mice weighing between 30-40 g were dissected on ice, weighed and homogenized in 10 volumes of 50 mM Tris-HCl buffer (pH 7.4 at 0°-4° C.). The resulting suspension was centrifuged, the supernate was discarded, and the pellet was washed by resuspension in Tris-HCl buffer followed by recentrifugation.
The final pellet was resuspended in 10 volumes of 10 mM Hepes buffer (pH 7.2 at 23° C.) containing 130 mM NaCl, 4.7 mM KCl, 1 mM EDTA, 5 mg/ml bovine albumin, and bacitracin (0.25 mg/ml). […]
Following incubation, radioactivity bound to membranes was separated from that free in solution by rapid filtration through Whatman GF/B filters and washed three times with 4-ml portions of ice-cold Tris-HCl buffer. Filters from samples incubated with tritiated pentagastrin were placed in polyethylene vials with 8 ml of scintillation cocktail, and the radioactivity was estimated by scintillation spectrometry (efficiency 47-52%). […]
Saturation curves for specific tritiated pentagastrin binding to mouse cortical membranes were analyzed by statisitcal methods to provide estimates for the maximum number of binding sites (Bmax) and the equilibrium dissociation constant (Kd).
In the displacement experiements, inhibition curves were analyzed by logit-log plots to provide estimates of the IC50 and nH (apparent Hill coefficient) values. […]
The inhibition constant, Ki, of the test compound was then calculated according to the Cheng-Prusoff equation: [formula] where [L] is the molar concentration of radiolabel and Kd is the equilibrium dissociation constant.

Molecule	Ki (CCK receptor) [µM]	Percent Repression of Food Intake After 0.5 Hours ([1]; I.P. 100 mg/kg) [%]	Percent Repression of Food Intake After 1.0 Hours ([1]; I.P. 100 mg/kg) [%]	Percent Repression of Food Intake After 3.0 Hours ([1]; I.P. 100 mg/kg) [%]	Percent Repression of Food Intake After 6.0 Hours ([1]; I.P. 100 mg/kg) [%]	Percent Repression of Food Intake After 0.5 Hours ([1]; I.P. 300 mg/kg) [%]	Percent Repression of Food Intake After 1.0 Hours ([1]; I.P. 300 mg/kg) [%]	Percent Repression of Food Intake After 3.0 Hours ([1]; I.P. 300 mg/kg) [%]	Percent Repression of Food Intake After 6.0 Hours ([1]; I.P. 300 mg/kg) [%]	further results
CCK26-33: prior art octapeptide, carboxyl-terminus fragment of cholecystokinin [reference compound]	–	–	–	–	–	–	–	–	–	Percent Repression of Food Intake After 0.5 Hours ([1]; I.P. 5 mg/kg): 50%; Percent Repression of Food Intake After 1.0 Hours ([1]; I.P. 5 mg/kg): 40%; Percent Repression of Food Intake After 3.0 Hours ([1]; I.P. 5 mg/kg): 3%; Percent Repression of Food Intake After 6.0 Hours ([1]; I.P. 5 mg/kg): 12%
CC(C)(C)OC(=O)N[C@@](C)(Cc1c[nH]c2ccccc12)C(=O)N[C@@H](Cc1ccccc1)C(N)=O (single isomer, unassigned) [Example 2, N-[(1,1-Dimethylethoxy)carbonyl]-α-methyltryptophyl-L-phenylalaninamide]	6	66	54	1	0	–	–	–	–	Percent Repression of Food Intake After 0.5 Hours ([1]; I.P. 4 mg/kg): 24%; Percent Repression of Food Intake After 1.0 Hours ([1]; I.P. 4 mg/kg): 13%; Percent Repression of Food Intake After 3.0 Hours ([1]; I.P. 4 mg/kg): 19%; Percent Repression of Food Intake After 6.0 Hours ([1]; I.P. 4 mg/kg): 14%
CC(Cc1c[nH]c2ccccc12)(NC(=O)OC(C)(C)C(Cl)(Cl)Cl)C(=O)NCCc1ccccn1 (racemic) [Example 19, (±)-[1-(1H-Indol-3-ylmethyl)-1-methyl-2-oxo-2-[[2-(2-pyridinyl)ethyl]amino]ethyl]carbamic acid, 2,2,2-trichloro-1,1-dimethylethyl ester]	–	–	–	–	–	35	49	60	55	Percent Repression of Food Intake After 0.5 Hours ([1]; P.O. 300 mg/kg): 78%; Percent Repression of Food Intake After 1.0 Hours ([1]; P.O. 300 mg/kg): 68%; Percent Repression of Food Intake After 3.0 Hours ([1]; P.O. 300 mg/kg): 52%; Percent Repression of Food Intake After 6.0 Hours ([1]; P.O. 300 mg/kg): 52%

More lines, main results first:

Ki (CCK receptor) [µM]	Molecule	Percent Repression of Food Intake After 0.5 Hours ([1]; I.P. 100 mg/kg) [%]	Percent Repression of Food Intake After 1.0 Hours ([1]; I.P. 100 mg/kg) [%]	Percent Repression of Food Intake After 3.0 Hours ([1]; I.P. 100 mg/kg) [%]	Percent Repression of Food Intake After 6.0 Hours ([1]; I.P. 100 mg/kg) [%]	Percent Repression of Food Intake After 0.5 Hours ([1]; I.P. 300 mg/kg) [%]	Percent Repression of Food Intake After 1.0 Hours ([1]; I.P. 300 mg/kg) [%]	Percent Repression of Food Intake After 3.0 Hours ([1]; I.P. 300 mg/kg) [%]	Percent Repression of Food Intake After 6.0 Hours ([1]; I.P. 300 mg/kg) [%]	further results
6.5	CCC(C)(C)OC(=O)NC(C)(Cc1c[nH]c2ccccc12)C(=O)NCCc1ccccc1 (stereo not shown) [Example 6, [1-(1H-Indol-3-ylmethyl)-1-methyl-2-oxo-2-[(2-phenylethyl)amino]ethyl]-carbamic acid, 1,1-dimethylpropyl ester]	8	22	36	13	–	–	–	–	–
6.8	CCC(C)(C)OC(=O)NC(C)(Cc1c[nH]c2ccccc12)C(=O)NC(CO)Cc1ccccc1 (stereo not shown) [Example 7, [2-[[1-(Hydroxymethyl)-2-phenylethyl]-amino]-1-(1H-indol-3-ylmethyl)-1-methyl-2-oxoethyl]-carbamic acid, 1,1-dimethylpropyl ester]	–	–	–	–	64	45	23	11	–
